Data published in patent publication US8871948B2, “(Aza)indole derivative substituted in position 5, pharmaceutical composition comprising it, intermediate compounds and preparation process therefor” (Aziende Chimiche Riunite Angelini Francesco A.C.R.A.F.S.p.A., priority 2007, dated 2014).

Columns and labels:
[1] = system: production of PGE2 in human pulmonary adenocarcinoma cell line A549 (mPGES-1); experiment: Inhibition of PGE2 production in IL-1β-stimulated A549 cells (EIA); type: cell-based; conditions: for IC50: IL-1β stimulated, read-out: pIC50 PGE2 (converted)
From the text: (§1) The test used makes it possible to evaluate the inhibitory capacity of the test compounds on the production of PGE2 and the selectivity relative to the production of PGF2α. The human pulmonary adenocarcinoma cell line A549 was used, which is particularly sensitive to stimulation with proinflammatory cytokines, for instance IL-1β, and, in response to this stimulation, is particularly active in the production and release of two prostanoids: PGE2 and PGF2α (Thoren S. Jakobsson P-J, 2000).
(§2) The cells were stimulated with IL-1β (10 ng/ml) and simultaneously treated with the test compound for 22 hours in a suitable culture medium (DMEM Dulbecco's Modified Eagles Medium) enriched with 5% fetal calf serum and L-glutamine (4 mM final) in an incubator at 37° C. and with a CO2 concentration of 5%.
(§3) At the end of the incubation, the amount of PGE2 and PGF2α produced and released into the supernatant were assayed using an EIA kit (produced and sold by Cayman Chemicals, Ann Arbor, Mich., USA).
(§4) The comparative compound used was indomethacin at a concentration of 10 nM (Sigma-Aldrich), which is a non-steroidal anti-inflammatory drug that inhibits in equal measure both PGE2 and PGF2α.
(§5) For illustrative purposes, Table 3 collates the pIC50 values of a number of compounds of the invention, where pIC50 represents the negative logarithm of the IC50, which, in turn, represents the concentration of compound that inhibits the production of PGE2 or PGF2α by 50% relative to cells that are stimulated but not treated with the same compound.

[2] = system: production of PGF2α in human pulmonary adenocarcinoma cell line A549; experiment: Inhibition of PGF2α production in IL-1β-stimulated A549 cells (EIA); type: cell-based; conditions: for IC50: IL-1β stimulated, read-out: pIC50 PGF2α (converted)
From the text: as §1, §2, §3, §4, §5

[3] = system: acetic acid-induced stretching in mice; experiment: Acetic acid-induced stretching in mice; type: in vivo; conditions: female CD-1 mice; for N° of stretches: 20 minutes after acetic acid; for % inhibition (stretches): vs vehicle (MTC)
Description: The test compound was evaluated in the model of acetic acid-induced stretching in mice (Stock J. L. et al., J Clin Inv 2001, 107: 325-331). This test makes it possible to evaluate the antinociceptive activity of the compounds of the invention in a model of inflammatory pain.
Female CD-1 mice weighing 25-30 g were used for the test. […] The control animals were treated with the vehicle alone (MTC) via the same route.
30 minutes after the treatment, the animals received an intraperitoneal injection of acetic acid (0.7 v/v in physiological solution, 16 μl/g of body weight) in order to induce inflammatory pain and to check the effects of the test compound on the nociceptive response.
Immediately after the administration of acetic acid and for the following 20 minutes, the number of stretches, which represents the parameter for evaluation of the nociceptive response, was measured.

[4] = system: production of PGE2 in human lymphoma cell line U-937 (cPGES); experiment: Inhibition of PGE2 production in U-937 cells (selectivity between isoforms of PGES); type: cell-based; conditions: basal conditions
From the text: The test used makes it possible to evaluate the capacity of the compounds of the invention to inhibit the production of PGE2 in a human lymphoma cell line U-937 that preferentially expresses an enzymatic isoform (cPGES), which is responsible for the production of PGE2 under basal conditions, in the absence of pro-inflammatory stimuli. This enzymatic form is different from the one predominantly expressed in the A549 cells (mPGES-1) after a pro-inflammatory stimulus.
The absence of inhibitory activity on PGE2 in this cell model ensures the selectivity of the compound compared with the enzymatic form responsible for the production of PGE2 in the presence of inflammatory stimuli.
The reference compound used was indomethacin at a concentration of 10 nM.

[5] = 10 nM, IL-1β 10 ng/ml, 22 hours

IC50 [1] | Structure (SMILES) | inhibition at 10 µM ([1]; IL-1β 10 ng/ml, 22 hours) | inhibition at 10 µM ([2]; IL-1β 10 ng/ml, 22 hours) | other results
 | CCn1c(-c2ccc(C)cc2)cc2cc(NC(=O)c3ccccc3Cl)cnc21 [Compound 1] | 59% | < 20% | 
3.98 µM | CCOC(=O)CCCn1c(-c2ccccc2)cc2cc(NC(=O)c3ccccc3Cl)ccc21 [Compound 7] | 76% | < 20% | 
1.58 µM | CCn1c(C2CCCCC2)cc2cc(NC(=O)c3ccccc3Cl)ccc21 [Compound 10] | 78% | < 20% | N° of stretches ([3]; 0.01 mg/kg intraperitoneally): 47 ± 4.3; % inhibition (stretches) ([3]; 0.01 mg/kg intraperitoneally): 5.9 ± 8.76%; N° of stretches ([3]; 0.1 mg/kg intraperitoneally): 34 ± 3.2; % inhibition (stretches) ([3]; 0.1 mg/kg intraperitoneally): 33.2 ± 6.16%; N° of stretches ([3]; 1 mg/kg intraperitoneally): 33 ± 3.9; % inhibition (stretches) ([3]; 1 mg/kg intraperitoneally): 33.6 ± 8.04%; N° of stretches ([3]; 10 mg/kg intraperitoneally): 21 ± 3.2; % inhibition (stretches) ([3]; 10 mg/kg intraperitoneally): 57.5 ± 6.57%; inhibition at 10 µM [4]: < 20%
3.16 µM | COCCn1c(-c2ccccc2)cc2cc(NC(=O)c3ccccc3Cl)ccc21 [Compound 12] | 78% | < 20% | inhibition at 10 µM [4]: < 20%
7.94 µM | CC(=O)OCCCn1c(-c2ccccc2)cc2cc(NC(=O)c3ccccc3Cl)ccc21 [Compound 13] | 61% | < 20% | inhibition at 10 µM [4]: < 20%
0.501 µM | CS(=O)(=O)n1c(CCc2ccccc2)cc2cc(NC(=O)c3ccccc3Cl)ccc21 [Compound 21] | 69% | < 20% | 
1.58 µM | CS(=O)(=O)n1c(-c2cccc(C(F)(F)F)c2)cc2cc(NC(=O)c3ccccc3Cl)ccc21 [Compound 22] | 94% | 44% | IC50 [2]: 25.1 µM; inhibition at 10 µM [4]: < 20%
 | CCn1c(CCc2ccccc2)cc2cc(NC(=O)c3ccccc3Cl)ccc21 [Compound 33] | 41% | < 20% | 
2.51 µM | CCn1c(Cc2ccccc2)cc2cc(NC(=O)c3ccccc3Cl)ccc21 [Compound 34] | 83% | 44% | 
2.51 µM | O=C(Nc1ccc2c(c1)cc(C(=O)Nc1ccccc1)n2CCCO)c1ccccc1C(F)(F)F [Compound 35] | 88% | 13% | IC50 [2]: 31.6 µM
50.1 µM | O=C(Nc1ccc2c(c1)cc(-c1ccc(F)cc1)n2CCO)c1c(Cl)cccc1Cl [Compound 36] | 40% | < 20% | 
6.31 µM | O=C(Nc1ccc2c(c1)cc(-c1ccc(Cl)cc1)n2CCO)c1ccc(F)cc1C(F)(F)F [Compound 37] | 73% | < 20% | 
25.1 µM | O=C(Nc1ccc2c(c1)cc(-c1ccc(F)cc1)n2CCO)c1c(F)cccc1C(F)(F)F [Compound 38] | 42% | < 20% | 
0.00501 µM | COc1ccc2c(c1)c(CC(=O)O)c(C)n2C(=O)c1ccc(Cl)cc1 [Indomethacin, indomethacin, reference compound] |  |  | inhibition at 0.01 µM [1, 5]: 100%; inhibition at 0.01 µM [2, 5]: 100%; IC50 [2]: 0.00251 µM; inhibition at 0.01 µM ([4]; 10 nM): 100%
